According to ChEMBL document CHEMBL4130367, “Click chemistry-based synthesis and anticancer activity evaluation of novel C-14 1,2,3-triazole dehydroabietic acid hybrids” (Eur J Med Chem, 2017):

Tests used:
[1] = tested on: MCF7; experiment: cells; conditions: Homo sapiens, MCF7, 72 h
Description: Cytotoxicity against human MCF7 cells assessed as reduction in cell viability after 72 hrs by MTT assay

[2] = tested on: MDA-MB-231; experiment: Cytotoxicity against human MDA-MB-231 cells assessed as reduction in cell viability after 72 hrs by MTT assay; type: functional, cell-based; conditions: MDA-MB-231, 72 h
[3] = tested on: SK-OV-3; experiment: Cytotoxicity against human SKOV3 cells assessed as reduction in cell viability after 72 hrs by MTT assay; type: functional, cell-based; conditions: SK-OV-3, 72 h
[4] = Octanol-water partition coefficient, log P of the compound; type: physicochemical
[5] = tested on: PC-3; experiment: Cytotoxicity against human PC3 cells assessed as reduction in cell viability after 72 hrs by MTT assay; type: functional, cell-based; conditions: PC-3, 72 h
[6] = tested on: NCI/ADR-RES; experiment: Growth inhibition of human MCF7/ADR cells at 2.5 to 5 uM after 72 hrs by MTT assay relative to control; type: functional
[7] = tested on: NCI/ADR-RES; experiment: Growth inhibition of human MCF7/ADR cells after 72 hrs by MTT assay; type: functional, cell-based

Structure (SMILES) | IC50 [1] | IC50 [2] | IC50 [3] | logP [4] | IC50 [5] | growth inhibition (GI) [6] | growth inhibition (GI) [7]
COC(=O)[C@]1(C)CCC[C@]2(C)c3ccc(C(C)C)c(NC(=O)Cn4cc(-c5cccs5)nn4)c3CC[C@@H]12 | > 100 µM | 57.1 µM | > 100 µM | 4.98 | > 100 µM | – | –
CCOC(=O)c1cn(CC(=O)Nc2c(C(C)C)ccc3c2CC[C@H]2[C@](C)(C(=O)OC)CCC[C@]32C)nn1 | 16.1 µM | 21.3 µM | 22.9 µM | 3.97 | 15.4 µM | – | –
COC(=O)[C@]1(C)CCC[C@]2(C)c3ccc(C(C)C)c(NC(=O)Cn4cc(-c5ccc6ccccc6c5)nn4)c3CC[C@@H]12 | 12.1 µM | 27 µM | 45.3 µM | 6.38 | 9.1 µM | – | –
COC(=O)[C@]1(C)CCC[C@]2(C)c3ccc(C(C)C)c(NC(=O)Cn4cc(-c5cccc(NC(C)=O)c5)nn4)c3CC[C@@H]12 | 1.5 µM | 5.9 µM | 3.9 µM | 4.39 | 10.1 µM | – | –
COC(=O)[C@]1(C)CCC[C@]2(C)c3ccc(C(C)C)c(N)c3CC[C@@H]12 | 31.1 µM | 24.1 µM | 6.1 µM | – | 25.4 µM | – | –
COC(=O)c1nnn(CC(=O)Nc2c(C(C)C)ccc3c2CC[C@H]2[C@](C)(C(=O)OC)CCC[C@]32C)c1C(=O)OC | 15.6 µM | 8.2 µM | 25.3 µM | 3.67 | 49 µM | – | –
COC(=O)[C@]1(C)CCC[C@]2(C)c3ccc(C(C)C)c(NC(=O)Cn4cc(-c5cccc(OC)c5)nn4)c3CC[C@@H]12 | 0.8 µM | 1.4 µM | 0.9 µM | 5.23 | 1.1 µM | >50% | Dose-dependent effect
COC(=O)[C@]1(C)CCC[C@]2(C)c3ccc(C(C)C)c(NC(=O)Cn4cc(-c5cccc([N+](=O)[O-])c5)nn4)c3CC[C@@H]12 | 91.1 µM | 87.5 µM | > 100 µM | 5.13 | > 100 µM | – | –
COC(=O)[C@]1(C)CCC[C@]2(C)c3ccc(C(C)C)c(NC(=O)Cn4cc(CNc5nc(Cl)nc(Cl)n5)nn4)c3CC[C@@H]12 | > 100 µM | > 100 µM | 92.1 µM | 5.12 | > 100 µM | – | –
COC(=O)[C@]1(C)CCC[C@]2(C)c3ccc(C(C)C)c(NC(=O)Cn4cc(CBr)nn4)c3CC[C@@H]12 | > 100 µM | 60 µM | > 100 µM | 4.47 | > 100 µM | – | –
COC(=O)[C@]1(C)CCC[C@]2(C)c3ccc(C(C)C)c(NC(=O)Cn4cc(-c5ccccc5)nn4)c3CC[C@@H]12 | 3.7 µM | 3 µM | 4.8 µM | 5.2 | 3.4 µM | – | –
COC(=O)[C@]1(C)CCC[C@]2(C)c3ccc(C(C)C)c(NC(=O)Cn4cc(-c5cccc(F)c5)nn4)c3CC[C@@H]12 | 68.8 µM | > 100 µM | 91.2 µM | 5.34 | > 100 µM | – | –
COC(=O)[C@]1(C)CCC[C@]2(C)c3ccc(C(C)C)c(NC(=O)Cn4cc(Cc5ccccc5)nn4)c3CC[C@@H]12 | > 100 µM | 31.9 µM | 59.4 µM | 5.72 | > 100 µM | – | –
COC(=O)[C@]1(C)CCC[C@]2(C)c3ccc(C(C)C)c(NC(=O)Cn4cc(C5CC5)nn4)c3CC[C@@H]12 | 24.2 µM | 16.2 µM | 19.4 µM | 4.11 | 12.3 µM | – | –
COC(=O)[C@]1(C)CCC[C@]2(C)c3ccc(C(C)C)c(NC(=O)Cn4cc(-c5ccc(-c6ccccc6)cc5)nn4)c3CC[C@@H]12 | 9.5 µM | 8.9 µM | 16 µM | 6.99 | 11.1 µM | – | –
COC(=O)[C@]1(C)CCC[C@]2(C)c3ccc(C(C)C)c(NC(=O)Cn4cc(-c5ccccc5F)nn4)c3CC[C@@H]12 | 19.4 µM | 10 µM | 15.2 µM | 5.36 | 8.7 µM | – | –
COC(=O)[C@]1(C)CCC[C@]2(C)c3ccc(C(C)C)c(NC(=O)Cn4cc(-c5ccncc5)nn4)c3CC[C@@H]12 | > 100 µM | > 100 µM | > 100 µM | 3.91 | > 100 µM | – | –
COC(=O)[C@]1(C)CCC[C@]2(C)c3ccc(C(C)C)c(NC(=O)Cn4cc(-c5ccc(OC)cc5)nn4)c3CC[C@@H]12 | 1.4 µM | 1.8 µM | 1.4 µM | 5.28 | 1.9 µM | >50% | Dose-dependent effect
CC(C)[C@]12O[C@H]1[C@@H]1O[C@@]13[C@@]1(C)CCC4=C(COC4=O)[C@@H]1C[C@@H]1O[C@@]13C2=O [TRIPTONIDE] | 0.03 µM | 0.03 µM | – | – | 0.02 µM | – | –
COC(=O)[C@]1(C)CCC[C@]2(C)c3ccc(C(C)C)c(NC(=O)Cn4cc(-c5cccnc5)nn4)c3CC[C@@H]12 | > 100 µM | 41.9 µM | > 100 µM | 4.13 | 30 µM | – | –
COC(=O)[C@]1(C)CCC[C@]2(C)c3ccc(C(C)C)c(NC(=O)Cn4cc(-c5ccccc5OC)nn4)c3CC[C@@H]12 | 1 µM | 1.8 µM | 1.4 µM | 5.21 | 2.3 µM | – | –
COC(=O)[C@]1(C)CCC[C@]2(C)c3ccc(C(C)C)c(NC(=O)CN=[N+]=[N-])c3CC[C@@H]12 | 52.1 µM | 60.7 µM | > 100 µM | – | > 100 µM | – | –
COC(=O)[C@]1(C)CCC[C@]2(C)c3ccc(C(C)C)c(NC(=O)CCl)c3CC[C@@H]12 | 51.6 µM | > 100 µM | 69.7 µM | – | 71.2 µM | – | –
COC(=O)[C@]1(C)CCC[C@]2(C)c3ccc(C(C)C)c(NC(=O)Cn4cc(-c5ccccn5)nn4)c3CC[C@@H]12 | > 100 µM | > 100 µM | > 100 µM | 4.05 | > 100 µM | – | –
COC(=O)[C@]1(C)CCC[C@]2(C)c3ccc(C(C)C)c(NC(=O)Cn4cc(-c5cc(OC)cc(OC)c5)nn4)c3CC[C@@H]12 | 8.9 µM | 1.4 µM | 3.3 µM | 5.24 | 5.2 µM | – | –
O=c1[nH]cc(F)c(=O)[nH]1 [FLUOROURACIL] | 5.2 µM | 24.5 µM | 20.8 µM | – | 13.7 µM | – | –
COC(=O)[C@]1(C)CCC[C@]2(C)c3ccc(C(C)C)c(NC(=O)Cn4cc(-c5ccc(F)cc5)nn4)c3CC[C@@H]12 | 1.9 µM | 1 µM | 1.8 µM | 5.31 | 2.6 µM | – | –
COC(=O)[C@]1(C)CCC[C@]2(C)c3ccc(C(C)C)c(NC(=O)Cn4cc([Si](C)(C)C)nn4)c3CC[C@@H]12 | > 100 µM | > 100 µM | 65.2 µM | 6.04 | 94.3 µM | – | –
COC(=O)[C@]1(C)CCC[C@]2(C)c3ccc(C(C)C)c(NC(=O)Cn4cc(-c5ccc([N+](=O)[O-])cc5)nn4)c3CC[C@@H]12 | > 100 µM | > 100 µM | 77.3 µM | 5.16 | > 100 µM | – | –
COC(=O)[C@]1(C)CCC[C@]2(C)c3ccc(C(C)C)c(NC(=O)Cn4cc(-c5ccc(OC(F)(F)F)cc5)nn4)c3CC[C@@H]12 | 9.2 µM | 23.4 µM | 20.3 µM | 6.17 | 12.1 µM | – | –
